The values that follow come from US5627171A, “Sphingosine-1-phosphate/trimethylsphingosine composition” (Oncomembrane, Inc., priority 1994, dated 1997).

Read-outs that look alike come from different tables or passages of the source.

For one experiment, the system named is platelet activation. Further details: key: +++: + graded effectiveness; ++: + graded effectiveness; + graded effectiveness; - not effective. The following applies: cited from earlier work.
The test system of the next experiment is B16BL6 melanoma cells. Further details: key: +++: + graded effectiveness; ++: + graded effectiveness; + graded effectiveness; - not effective. The following applies: cited from earlier work.
For the next experiment, the system named is protein kinase C. Further details: key: +++: + graded effectiveness; ++: + graded effectiveness; + graded effectiveness; - not effective. The following applies: cited from earlier work.
For a further experiment, the system named is tumor cells. Briefly: Experimental metastasis model: intravenous injection of tumor cells, lung tumor colonies. Type of experiment: in vivo. The following applies: tumor cells i.v.; number of lung tumor colonies. An excerpt:
(§1) In either model, the number of lung tumor colonies is ascertained macroscopically and microscopically following a course of repeated liposome administration.

The test system of a further experiment is BL6 cell line. Nature of the experiment: Spontaneous metastasis model: subcutaneous BL6 cells, lung colonization. The following applies: mice, BL6 cells s.c.; liposomes i.v. on days 5, 10, 15, 20, 25, 30; primary tumor excised day 21; assessed day 35. The experiment is classed as in vivo. How it is done:
As an example, mice were injected subcutaneously with the metastatic and invasive BL6 cell line (Hart et al., Amer. J. Path., 97, 587, 1979; Poote et al., Canc. Res., 42, 2770, 1982) (1×10^5 cells in 0.05 ml of Dulbecco-modified Eagle's medium). A single intravenous injection of the 10:1 liposomal TMS/Sph-1-P composition described hereinabove was administered on days 5, 10, 15, 20, 25 and 30. The primary tumor was excised on day 21 and lung colonization was assessed on day 35. […] Controls comprised liposomes containing TMS alone, liposomes containing Sph-1-P alone, liposomes containing medium or medium alone with no liposomes.
Then the instant composition encapsulated in liposomes is administered to the hosts, see FIG. 9A.
as §1

Setting [1] is: preincubation with free derivative.

In the case of `CCCCCCCCCCCCCCC[C@@H](O)[C@H](CO)[N+](C)(C)C` [DHTMS], the “Inhibition of PA” value with platelet activation was “++”. For the same compound, the Inhibition of metastasis result in the experiment with B16BL6 melanoma cells (liposomal formulation was used) is “+”. Further, the PKC inhibition result in the experiment on protein kinase C is given as “+++”.

As to `CCCCCCCCCCCCCC(F)/C=C/[C@H](CO)[N+](C)(C)C` (some centres unmarked) [5F-TMS], the “Inhibition of PA” value in the experiment with platelet activation is “+++”. Moreover, the Inhibition of metastasis entry in the experiment on B16BL6 melanoma cells (no footnote on formulation) was “+++”. Also, the PKC inhibition entry with protein kinase C was “+++”.

On to `COC(=O)CCCCCCCCCCCC/C=C/[C@@H](O)[C@H](CO)[N+](C)(C)C` [Methylcarboxy TMS], for which the “Inhibition of PA” value in the experiment with platelet activation is recorded as “-”. Also, the Inhibition of metastasis result with B16BL6 melanoma cells (setting [1]) was “-”. Besides, the PKC inhibition entry with protein kinase C is “-”.

Turning to `CCCCCCCCCCCCC/C=C/[C@@H](O)[C@H](CO)[N+](C)(C)C` [TMS, N,N,N-trimethylsphingosine], in the experiment on platelet activation, the “Inhibition of PA” value is given as “+++”. The “Effect in the experimental metastasis model” value in the experiment with tumor cells is reported as “strong effect”. Also, the Inhibition of metastasis result in the experiment on B16BL6 melanoma cells (free derivative and liposomal formulation were used) was “+++”. In addition, in the experiment on protein kinase C, the PKC inhibition entry was “+++”.

In the case of `CCCCCCCCCCCCCC#C[C@@H](O)[C@H](CO)[N+](C)(C)C` [4-alkyn-TMS], in the experiment on platelet activation, the “Inhibition of PA” value was “++”. For the same compound, the Inhibition of metastasis entry with B16BL6 melanoma cells (no footnote on formulation) is reported as “+”. In the experiment on protein kinase C, the PKC inhibition entry is “+++”.

Consider `C[N+](C)(C)[C@@H](CO)[C@H](O)/C=C/CCCCCCCCCCCCC(=O)O` [Carboxy TMS], for which, in the experiment on platelet activation, the “Inhibition of PA” value is “-”. Moreover, the Inhibition of metastasis entry in the experiment with B16BL6 melanoma cells (setting [1]) is “-”. Also, in the experiment with protein kinase C, the PKC inhibition entry is recorded as “-”.

Consider `C[N+](C)(C)[C@@H](CO)[C@H](O)c1ccccc1` [NTPS], for which the “Inhibition of PA” value in the experiment on platelet activation is “-”. Also, in the experiment on B16BL6 melanoma cells (setting [1]), the Inhibition of metastasis entry was “-”. The PKC inhibition result with protein kinase C is recorded as “-”.

Turning to `CCCCCCCCCCCCC/C=C/[C@@H](O)[C@@H](N)COP(=O)(O)O` [Sph-1-P, sphingosine-1-phosphate], the “Lung colony number (lung colonization)” value in the experiment with BL6 cell line was “no different in effect from medium alone or liposomes containing medium only”.
